Earlier results on 1 molecule are cited in patent publication US9433620B2, “Pharmaceutical compositions of lurasidone” (CADILA HEALTHCARE LIMITED, priority 2011, dated 2016).

Counter-ions that a name gives are not always drawn.

With `O=C1[C@@H]2[C@H]3CC[C@H](C3)[C@@H]2C(=O)N1C[C@@H]1CCCC[C@H]1CN1CCN(c2nsc3ccccc23)CC1` [lurasidone, N-[4-[4-(1,2-benzisothiazol-3-yl)-1-piperazinyl]-(2R,3R)-2,3-tetramethyle-ne-butyl]-(1′R,2′S,3′R,4′S)-2,3-bicyclo[2,2,1]heptanedicarboxylmide hydrochloride], the solubility in water entry is on record as “less than several”.
